Source: ChEMBL document CHEMBL1144342, “Synthesis and structure-activity relationship of 4-substituted 2-(2-acetyloxyethyl)-8-(morpholine-4-sulfonyl)pyrrolo[3,4-c]quinoline-1,3-diones as potent caspase-3 inhibitors” (J Med Chem, 2005)

These molecules were tested against T1, Caspase-3 (Homo sapiens, UniProt P42574) (assay: In vitro inhibitory concentration against human caspase-3).
T1 sequence (P42574 whole entry): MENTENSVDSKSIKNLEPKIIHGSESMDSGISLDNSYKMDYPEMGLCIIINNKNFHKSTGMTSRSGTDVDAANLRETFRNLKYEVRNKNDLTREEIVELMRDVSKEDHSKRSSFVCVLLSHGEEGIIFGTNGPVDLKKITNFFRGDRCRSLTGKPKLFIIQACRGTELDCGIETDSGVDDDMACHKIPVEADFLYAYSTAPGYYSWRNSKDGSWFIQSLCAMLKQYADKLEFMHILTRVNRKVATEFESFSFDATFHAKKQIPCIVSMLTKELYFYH
With `CC(=O)OCCN1C(=O)c2c(/C=C/c3ccc(C(F)(F)F)cc3)nc3ccc(S(=O)(=O)N4CCOCC4)cc3c2C1=O` the IC50 was 33 nM.
In the case of `CC(=O)OCCN1C(=O)c2c(N3CCOCC3)nc3ccc(S(=O)(=O)N4CCOCC4)cc3c2C1=O`, the IC50 is reported as 15400 nM.
Work on `CC(=O)OCCN1C(=O)c2c(-c3cccnc3)nc3ccc(S(=O)(=O)N4CCOCC4)cc3c2C1=O` yielded an IC50 of 33 nM.
`CC(=O)OCCN1C(=O)c2c(C)nc3ccc(S(=O)(=O)N4CCOCC4)cc3c2C1=O` gave an IC50 of 23 nM.
For `CC(=O)OCCN1C(=O)c2c(-c3ccccc3)nc3ccc(S(=O)(=O)N4CCOCC4)cc3c2C1=O`, the IC50 was 27 nM.
Work on `COC(=O)CS(=O)(=O)c1nc2ccc(S(=O)(=O)N3CCOCC3)cc2c2c1C(=O)N(CCOC(C)=O)C2=O` yielded an IC50 of 362 nM.
In the case of `COC(=O)C[S+]([O-])c1nc2ccc(S(=O)(=O)N3CCOCC3)cc2c2c1C(=O)N(CCOC(C)=O)C2=O` (configuration not stated), the IC50 is reported as 352 nM.
For `CC(=O)OCCN1C(=O)c2c(Cl)nc3ccc(S(=O)(=O)N4CCOCC4)cc3c2C1=O`, the IC50 was 294 nM.
With `CC(=O)OCCN1C(=O)c2c(C(C)C)nc3ccc(S(=O)(=O)N4CCOCC4)cc3c2C1=O` the IC50 was 40 nM.
Work on `CC(=O)OCCN1C(=O)c2c(c3cc(S(=O)(=O)N4CCOCC4)ccc3[nH]c2=O)C1=O` yielded an IC50 of 10900 nM.
`CC(=O)OCCN1C(=O)c2c(-c3ccc(C(=O)N(C)C)cc3)nc3ccc(S(=O)(=O)N4CCOCC4)cc3c2C1=O` was tested, and the IC50 was 58 nM.
`CC(=O)OCCN1C(=O)c2c(Nc3ccc(F)c(Cl)c3)nc3ccc(S(=O)(=O)N4CCOCC4)cc3c2C1=O` gave an IC50 of 27900 nM.
With `CC(=O)OCCN1C(=O)c2c(-c3ccco3)nc3ccc(S(=O)(=O)N4CCOCC4)cc3c2C1=O` the IC50 was 36 nM.
Work on `COC(=O)CSc1nc2ccc(S(=O)(=O)N3CCOCC3)cc2c2c1C(=O)N(CCOC(C)=O)C2=O` yielded an IC50 of 1290 nM.
In the case of `CCOC(=O)C[C@@H](Nc1nc2ccc(S(=O)(=O)N3CCOCC3)cc2c2c1C(=O)N(CCOC(C)=O)C2=O)C(=O)OCC`, the IC50 is reported as 5190 nM.
`CC(=O)OCCN1C(=O)c2c(-c3ccc(F)c(Cl)c3)nc3ccc(S(=O)(=O)N4CCOCC4)cc3c2C1=O` showed an IC50 of 33 nM.
For `CC(=O)OCCN1C(=O)c2c(SC(=N)N)nc3ccc(S(=O)(=O)N4CCOCC4)cc3c2C1=O`, the IC50 was 255 nM.
